Reference: patent publication US20230218631A1 (priority 2020, published 2023)

Tests used:
Type in all cases: in vivo
wild-type mice = experiment: Dependence (CIE)-induced and forced swim stress+dependence escalated ethanol drinking under systemic UNC0642; settings: chronic 4 mg/kg UNC0642 for 15 days
Procedure: Systemic G9A inhibitor administration and dependence-potentiated and stress+dependence-potentiated drinking. […] Mice were then divided into 4 even groups. Mice were exposed to Air/No stress, Air/FSS, CIE/No Stress, or CIE/stress in a 2×2 design to assess the effects of UNC0642 on dependence drinking alone and dependence+stress. Chronic injections of either vehicle or 4 mg/kg UNC0642 were started during the “test 4” phase in FIG. 6A and continued for 15 days. Ethanol consumed was recorded daily.
Since systemic delivery of UNC0642 blocked stress-regulated ethanol drinking in mice, we tested whether systemic delivery of UNC0642 could block dependence-induced escalation of ethanol drinking also. […] Mice were then divided into 4 evenly matched groups. Mice were exposed to Air/No stress, Air/FSS, CIE/No Stress, or CIE/stress to assess the effects of UNC0642 on ethanol drinking influenced by alcohol dependence alone or stress+dependence. Chronic injections of either vehicle or 4 mg/kg UNC0642 were started during the “test 4” phase illustrated in FIG. 6A and continued for 15 days.

C57BL/6J mice [1] = experiment: Two-bottle choice ethanol drinking (non-stressed) under systemic UNC0642
Procedure: Animal Care. Adult male C57BL/6J mice (Jackson Laboratory, Bar Harbor, Me.) were singly housed in a climate-controlled environment (21° C.) on a 12h light-dark cycle. Animals were habituated to the housing environment for at least 7 days prior to use in experiments, and had food and water ad libitum. All drinking and behavioral experiments were performed during the dark cycle as described below, and were approved by the MUSC Institutional Animal Care and Use Committee (IACUC) in facilities accredited by the American Association for the Accreditation of Laboratory Animal Care (AAALAC). All procedures were conducted in accordance with the guidelines established by the National Institutes of Health and the National Research Council.
(§1) Systemic G9A inhibitor administration and stress-potentiated drinking. […] Mice were then divided into 2 even groups and given chronic injections of either vehicle or 4 mg/kg UNC0642 for 2 weeks similar to a previous in vivo study in mice (Wang et al., 2018). Next, following 3 days of withdrawal, control mice were injected with 5 mg/kg U50,488 only and chronic treated mice were given both U50,488 and UNC0642 in the same injection 30 minutes before the session. This test was repeated again the following day and then only vehicle injections were given to all mice for the next 3 days before two-bottle choice testing. Finally, after another 3 day withdrawal, an acute injection of UNC0642+U50,488 was given to the naïve control group while U50,488 alone was administered to the chronic UNC0642 group 30 minutes before drinking.
Systemic EHMT2/G9A Inhibition Suppresses Stress-induced Ethanol Drinking Since reducing EHMT2/G9A levels in the NAc blocked stress-regulated ethanol drinking in mice, we tested whether systemic delivery of a specific EHMT2/G9A methyltransferase inhibitor, UNC0642 (Liu et al, 2013), could block stress-potentiated ethanol drinking. Wild-type mice were allowed to drink ethanol for 2 weeks prior to repeated, daily injections of UNC0642 (4 mg/kg; i.p.) given 30 minutes prior to the 2-bottle choice sessions (FIG. 5A). […]

C57BL/6J mice [2] = experiment: U50,488 (kappa agonist) stress-potentiated two-bottle choice ethanol drinking under systemic UNC0642
Procedure: as §1
Systemic EHMT2/G9A Inhibition Suppresses Stress-induced Ethanol Drinking Since reducing EHMT2/G9A levels in the NAc blocked stress-regulated ethanol drinking in mice, we tested whether systemic delivery of a specific EHMT2/G9A methyltransferase inhibitor, UNC0642 (Liu et al, 2013), could block stress-potentiated ethanol drinking. Wild-type mice were allowed to drink ethanol for 2 weeks prior to repeated, daily injections of UNC0642 (4 mg/kg; i.p.) given 30 minutes prior to the 2-bottle choice sessions (FIG. 5A). […] Mice were then allowed to continue ethanol drinking for one additional week before the UNC0642-naïve mice (former vehicle control group) were injected with either vehicle or UNC0642 (4 mg/kg; i.p.) and tested for U50,488-potentiated ethanol drinking.
Since UNC0642 (4 mg/kg, i.p.) blocked stress-regulated ethanol drinking in mice as shown above, it was next tested whether this effect was dose-dependent and if it worked similarly in both sexes. There are reported sex/gender differences in the risk of developing several neuropsychiatric conditions, including AUD, SUD, and mood disorders, and while there was no a priori expectation of a sex-difference in UNC0642 efficacy in reducing stress-potentiated alcohol drinking, we wished to confirm that the treatment would be effective in both males and females. Similar to the studies described hereinabove (FIG. 5A), wild-type mice (both male and female) were allowed to drink ethanol for 2 weeks prior to repeated, daily injections of UNC0642 (4 mg/kg; 2 mg/kg, 1 mg/kg, or 0 mg/kg (vehicle), i.p.) given 30 minutes prior to the 2-bottle choice sessions. […]

## COc1cc2c(NC3CCN(C(C)C)CC3)nc(N3CCC(F)(F)CC3)nc2cc1OCCCN1CCCC1 [UNC0642, 2-(4,4-Difluoropiperidin-1-yl)-6-methoxy-N-[1-(propan-2-yl)piperidin-4-yl]-7-[3-(pyrrolidin-1-yl)propoxy]quinazolin-4-amine]
wild-type mice; CIE vs Air, no stress, FIG. 6B left panel
  dependence-induced ethanol drinking during test 5 week: significant reduction
wild-type mice; forced swim stress plus CIE, FIG. 6B right panel
  stress+dependence ethanol drinking, test 5: also suppressed
C57BL/6J mice [1]; 4 mg/kg i.p. daily, 30 min before 2-bottle choice session, vs vehicle, FIG. 5B
  ethanol drinking during the first week of daily UNC0642 injections (week 3): significant reduction
C57BL/6J mice [1]; 4 mg/kg i.p. daily, vs vehicle control, FIG. 5B
  ethanol intake in the second week of daily drug treatments (week 4): no difference
C57BL/6J mice [1]; 1, 2 or 4 mg/kg i.p. daily, male and female mice, weeks 3-5, FIG. 7A
  baseline two-bottle choice alcohol drinking during daily UNC0642 injections: no effect
C57BL/6J mice [2]; 2 mg/kg i.p. daily, male and female mice, both sexes similarly, FIG. 7B
  U50,488-potentiated ethanol drinking, chronic UNC0642 2 mg/kg: suppressed
C57BL/6J mice [2]; 4 mg/kg i.p. daily, male and female mice, both sexes similarly, FIG. 7B
  U50,488-potentiated ethanol drinking, chronic UNC0642 4 mg/kg: suppressed
C57BL/6J mice [2]; chronic 4 mg/kg i.p. for 2 weeks, U50,488 5 mg/kg i.p. 30 min before session, FIG. 5C
  U50,488-potentiated ethanol drinking, chronic UNC0642 treatment: suppressed
C57BL/6J mice [2]; single 4 mg/kg i.p. with U50,488 5 mg/kg in UNC0642-naive mice, FIG. 5D
  U50,488-potentiated ethanol drinking, single (acute) injection of UNC0642: failed to influence stress-potentiated drinking
